Earlier results, collected in US20080161405A1, “Biguanide Composition and Method of Treatment and Prevention of Infections” (priority 2006, published 2008).
Converted amounts (≈) assume the structure as drawn.

Legend:
[1] = tested on: acanthamoeba cysts and trophazoites
Acanthamoeba keratitis = details: case report, recurrence in the eye
Fusarium Keratomycosis = details: 0.02% solution, rabbit model
Aspergillus keratitis = details: 0.02%

Compound: CCCCC(CC)CNC(=N)NC(=N)NCCCCCCNC(=N)NC(=N)NCC(CC)CCCC (stereo not shown) [Alexidine, 1,1′-hexamethylene-bis[5-(2-ethylhexyl)biguanide]]
- minimum inhibitory concentration [1]: 6.3 µg/mL (≈ 12.4 µM)

Compound: poly(hexamethylene biguanide) [polyhexamethylene biguanide]
- treatment of recurrence of Acanthamoeba keratitis (Acanthamoeba keratitis): successfully treated
- reduction of fungal growth (Fusarium Keratomycosis): effective at reducing fungal growth
- effectiveness in experimental Aspergillus keratitis (Aspergillus keratitis): moderately effective
